Measurements taken from patent US20080312271A1, “AZABENZIMIDAZOLYL COMPOUNDS” (Pfizer Inc., priority 2006, published 2008).
pEC50: −log10 of the molar value. Like-named read-outs stand apart in the source and are kept apart here.

Target: T1, mGluR2 receptor (metabotropic glutamate receptor 2) (Homo sapiens, UniProt Q14416)
T1 construct: expressed in transfected cells
Assay: mGluR2 Potentiator Screen, FLIPR, EC10-EC20 glutamate challenge
Format: cell-based
Description: Procedure for mGluR2 Potentiator Screen NLB methods EC10-EC20 Challenge Cell Culture and Plating:
Cells used for this screen are HEK cells stably transfected with the mGluR2 receptor (metabotropic glutamate receptor 2) and the Gα15 G protein. Clones were identified by functional activity (FLIPR). Cells are grown in growth media containing: DMEM High Glucose with Glutamine and Na Pyruvate (GIBCO), 10% (v/v) Heat inactivate FBS (GIBCO), G418 500 ug/ml (from 50 mg/ml stock) (GIBCO) and Blasticidin 3 ug/ml (from 5 mg/ml stock made in H2O) (Invitrogen).
2 days before the assay cell are trypsinized with 0.25% trysin/EDTA (GIBCO), spun down at 1000 rpm for 5 minutes, resuspended in growth media and plated on polystyrene 384 well black wall 1 clear bottom poly-D-lysine coated plates at a density of approximately 18,000 cells/well in a volume of 50 μL per well. One day before the assay the growth media is removed from the plates by flicking, and replaced with media containing DMEM High Glucose without Glutamine and Na Pyruvate (GIBCO) and 10% (v/v) dialyzed FBS (GIBCO). The reason for the removal of glutamine the day before the assay is to minimize the amount of glutamate that will be present during the assay, as endogenous glutarnate released from the cells can reduce the fluorescent response and interfere with the FLIPR screen.
FLIPR Methods and Data Analysis:
On the day of the assay, the FLIPR assay is performed using the following methods.
The pH is adjusted to 7.4 with 1 M NaOH. Prepare a 2 mM (approx.) stock solution of Fluo-4,am (Molecular Probes) dye in DMSO-22 μl DMSO per 50 ug vial (440 μL per 1 mg vial). Make a 1 mM (approx.) flou-4, PA working solution per vial by adding 22 μl of 20% pluronic acid (PA), (Molecular Probes) in DMSO to each 50 ug vial (440 μL per 1 mg vial). Prepare a 250 mM Probenecid (Sigma) stock solution by dissolving 0.71 g into 5 ml 1N NaOH and 5 ml assay buffer (for each liter of assay wash buffer)L Make 4 uM (approx.) dye incubation media by adding […] per 11 ml DMEM high glucose without glutamine (220 ml per 1 mg vial). Add 110 μL probenecid stock per 11 ml (2.5 mM final [concentration]). To the dye media add 3 units/ml of glutamic-pyruvic transaminase (GPT, Sigma) and 3 mM Na Pyruvate. The assay has worked with dye concentrations from 2 uM to 8 uM dye as well. To the assay buffer from drug preparation, add 1.83 mls DMSO and 400 μL 15.8% P104 (from New Leads biology) per liter for final concentrations of 0.18% DMSO and 0.006% P104. To the assay buffer for cell washing, add probenecid in the same manner and concentration that was used for the dye media.
Remove growth media from cell plates by flicking. Add 50 μl/well dye solution. Incubate 1 hour at 37° C. and 5% CO2. Remove dye solution and wash 3 times with assay buffer+probenecid (100 μl probenecid stock per 10 ml buffer), leaving 30 μL/well assay buffer. Wait at least 10-15 minutes. Compounds and agonist challenge additions are performed with the FLIPR. The 1st addition is for test compounds, which are added as 15 μL of 4×[concentration] of potentiator. The second 2nd addition is 15 μL of 4×[concentration] of agonist or challenge. This achieves 1× concentration of all compounds only after 2nd addition. The 1st and 2nd additions are performed separately using the FLIPR, which give 2 different data files. Compounds are pretreated at least 30 minutes before agonist addition,
Results are analyzed by dividing the peak fluorescent value of the FLIPR response by the […] to achieve a ratio response. The ratios are then analyzed by curve fitting programs. […] Maximum values for dose response curves (forced fitting) are derived from standards on the plate.
Compound Preparation and Glutamate Challenge:
Compounds are delivered as 10 mM DMSO stocks or as powders, Powders are solubilized in DMSO at 10 mM (as solubility allows). Compounds are sonicated in a heated water bath (35-40° C.) for at least 20 minutes.

[1] = HEK cells stably transfected with mGluR2 and Gα15, FLIPR (Fluo-4), potentiation of an EC10 to EC20 concentration of glutamate, Table 9

T1 sequence (Q14416 19-872, species assumed): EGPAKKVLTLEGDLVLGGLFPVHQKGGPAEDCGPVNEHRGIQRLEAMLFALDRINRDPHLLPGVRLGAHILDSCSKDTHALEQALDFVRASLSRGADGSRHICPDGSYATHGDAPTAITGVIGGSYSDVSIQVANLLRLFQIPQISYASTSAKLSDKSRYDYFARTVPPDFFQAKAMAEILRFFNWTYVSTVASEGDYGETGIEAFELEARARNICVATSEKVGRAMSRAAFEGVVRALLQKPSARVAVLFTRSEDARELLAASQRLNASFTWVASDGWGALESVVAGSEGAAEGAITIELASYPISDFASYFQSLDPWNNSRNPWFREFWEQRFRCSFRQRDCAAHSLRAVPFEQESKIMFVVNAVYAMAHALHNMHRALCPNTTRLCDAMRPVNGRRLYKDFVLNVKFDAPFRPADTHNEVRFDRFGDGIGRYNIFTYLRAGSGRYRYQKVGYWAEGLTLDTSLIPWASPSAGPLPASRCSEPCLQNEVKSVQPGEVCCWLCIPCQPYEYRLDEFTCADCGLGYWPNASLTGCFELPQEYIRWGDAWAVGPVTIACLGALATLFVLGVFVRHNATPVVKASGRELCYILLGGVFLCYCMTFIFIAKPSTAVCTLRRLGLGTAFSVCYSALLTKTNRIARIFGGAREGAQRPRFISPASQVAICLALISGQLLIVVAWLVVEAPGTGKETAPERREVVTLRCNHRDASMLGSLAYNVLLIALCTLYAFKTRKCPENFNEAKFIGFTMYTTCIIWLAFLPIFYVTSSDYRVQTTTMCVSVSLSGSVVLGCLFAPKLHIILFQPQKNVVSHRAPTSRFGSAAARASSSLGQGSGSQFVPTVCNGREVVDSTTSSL

| SMILES | pEC50 | pEC50 [1] |
| --- | --- | --- |
| C[C@@H]1CN(Cc2nc3nccc4c3n2CCC4)CC[C@@H]1c1ccc(F)cc1F (relative stereo) [Example 127, 2-{[Cis-4-(2,4-difluorophenyl)-3-methylpiperidin-1-yl]methyl}-5,6-dihydro-4H-imidazo[4,5,1-ij]-1,7-naphthyridine] | 7.33 | 7.33 |
| C[C@@H]1CN(Cc2nc3nccc4c3n2CCC4)CC[C@@H]1c1ccc(F)c(Cl)c1 (relative stereo) [Example 128, 2-{[Cis-4-(3-chloro-4-fluorophenyl)-3-methylpiperidin-1-yl]methyl}-5,6-dihydro-4H-imidazo[4,5,1-ij]-1,7-naphthyridine] | 6.87 | 6.87 |
| C[C@@H]1CN(Cc2nc3nccc4c3n2CCC4)CC[C@@H]1c1ccc(Cl)cc1F (relative stereo) [Example 129, 2-{[Cis-4-(4-chloro-2-fluorophenyl)-3-methylpiperidin-1-yl]methyl}-5,6-dihydro-4H-imidazo[4,5,1-ij]-1,7-naphthyridine] | 7.90 | 7.90 |
| COc1cc(F)ccc1[C@H]1CCN(Cc2nc3nccc4c3n2CCC4)C[C@H]1C (relative stereo) [Example 134, 2-{[Cis-4-(4-fluoro-2-methoxyphenyl)-3-methylpiperidin-1-yl]methyl}-5,6-dihydro-4H-imidazo[4,5,1-ij]-1,7-naphthyridine] | 7.52 | 7.52 |
| C[C@@H]1CN(Cc2nc3cnccc3n2C)CC[C@@H]1c1ccc(C(F)(F)F)cc1 (relative stereo) [compound 71] | 7.12 |  |
| C[C@@H]1CN(Cc2nc3ncccc3n2C)CC[C@@H]1c1ccc(F)c(Cl)c1 (relative stereo) [compound 111] | 6.69 |  |
| COc1cc(C(F)(F)F)ccc1[C@H]1CCN(Cc2nc3ncccc3n2C)C[C@H]1C (relative stereo) [compound 114] | 7.37 |  |
| C[C@@H]1CN(Cc2nc3ncccc3n2C)CC[C@@H]1c1ccc(Cl)cc1F (relative stereo) [compound 115] | 7.71 |  |
| C[C@@H]1CN(Cc2nc3cnccc3n2C)CC[C@@H]1c1ccc(Cl)cc1F (relative stereo) [compound 116] | 7.30 |  |
| CCOc1ccc([C@H]2CCN(Cc3nc4ncccc4n3C)C[C@H]2C)cc1 (relative stereo) [compound 120] | 6.19 |  |
| C[C@@H]1CN(Cc2nc3ncccc3n2C)CC[C@@H]1c1ccc(F)c(F)c1 (relative stereo) [compound 121] | 6.12 |  |
| C[C@@H]1CN(Cc2nc3ncccc3n2C)CC[C@@H]1c1ccc(F)cc1F (relative stereo) [compound 124] | 6.93 |  |
| C[C@@H]1CN(Cc2nc3cnccc3n2C)CC[C@@H]1c1ccc(F)cc1F (relative stereo) [compound 125] | 4.99 |  |
| COc1cc(F)ccc1[C@H]1CCN(Cc2nc3ncccc3n2C)C[C@H]1C (relative stereo) [compound 132] | 7.11 |  |
| COc1cc(F)ccc1[C@H]1CCN(Cc2nc3cnccc3n2C)C[C@H]1C (relative stereo) [compound 133] | 7.27 |  |
| C[C@@H]1CN(Cc2nc3cnccc3n2C)CC[C@@H]1c1ccc(OC(F)(F)F)cc1F (relative stereo) [compound 146] | 7.26 |  |
| C[C@@H]1CN(Cc2nc3ncccc3n2C)CC[C@@H]1c1ccc(C(F)(F)F)c(F)c1 (relative stereo) [compound 147] | 7.38 |  |
| C[C@@H]1CN(Cc2nc3cnccc3n2C)CC[C@@H]1c1ccc(C(F)(F)F)c(F)c1 (relative stereo) [compound 148] | 7.15 |  |
| C[C@@H]1CN(Cc2nc3ncccc3n2C)CC[C@@H]1c1ccc(C(F)(F)F)cc1C(F)(F)F (relative stereo) [compound 149] | 7.61 |  |
| C[C@@H]1CN(Cc2nc3cnccc3n2C)CC[C@@H]1c1ccc(C(F)(F)F)cc1C(F)(F)F (relative stereo) [compound 150] | 6.68 |  |
| C[C@@H]1CN(Cc2nc3ncccc3n2C)CC[C@@H]1c1ccc(C(F)(F)F)cc1Cl (relative stereo) [compound 151] | 7.52 |  |
| C[C@@H]1CN(Cc2nc3cnccc3n2C)CC[C@@H]1c1ccc(C(F)(F)F)cc1Cl (relative stereo) [compound 152] | 7.18 |  |

| SMILES | pEC50 | pEC50 [1] |
| --- | --- | --- |
| C[C@@H]1CN(Cc2nc3ncccc3n2C)CC[C@@H]1c1ccc(Cl)cc1Cl (relative stereo) [compound 155] | 7.64 |  |
| C[C@@H]1CN(Cc2nc3cnccc3n2C)CC[C@@H]1c1ccc(Cl)cc1Cl (relative stereo) [compound 156] | 7.05 |  |
| C[C@@H]1CN(Cc2nc3ncccc3n2C)CC[C@@H]1c1ccc(OC(F)(F)F)cc1 (relative stereo) [compound 157] | 6.56 |  |
| C[C@@H]1CN(Cc2nc3cnccc3n2C)CC[C@@H]1c1ccc(OC(F)(F)F)cc1 (relative stereo) [compound 158] | 6.58 |  |
| Cc1cc(Cl)ccc1[C@H]1CCN(Cc2nc3ncccc3n2C)C[C@H]1C (relative stereo) [compound 160] | 6.99 |  |
| Cc1cc(Cl)ccc1[C@H]1CCN(Cc2nc3cnccc3n2C)C[C@H]1C (relative stereo) [compound 161] | 6.41 |  |
| Cc1cc(OC(F)(F)F)ccc1[C@H]1CCN(Cc2nc3ncccc3n2C)C[C@H]1C (relative stereo) [compound 164] | > 7.13 |  |
| Cc1cc(OC(F)(F)F)ccc1[C@H]1CCN(Cc2nc3cnccc3n2C)C[C@H]1C (relative stereo) [compound 165] | 6.29 |  |
| CC(C)Oc1ccc([C@H]2CCN(Cc3nc4ncccc4n3C)C[C@H]2C)c(F)c1 (relative stereo) [compound 166] | 7.08 |  |
| CC(C)Oc1ccc([C@H]2CCN(Cc3nc4cnccc4n3C)C[C@H]2C)c(F)c1 (relative stereo) [compound 167] | < 6.76 |  |
| CC(C)Oc1ccc([C@H]2CCN(Cc3nc4ncccc4n3C)C[C@H]2C)c(Cl)c1 (relative stereo) [compound 169] | 6.76 |  |
| CC(C)Oc1ccc([C@H]2CCN(Cc3nc4cnccc4n3C)C[C@H]2C)c(Cl)c1 (relative stereo) [compound 170] | 6.55 |  |
| COc1ccc([C@H]2CCN(Cc3nc4ncccc4n3C)C[C@H]2C)c(C(F)(F)F)c1 (relative stereo) [compound 173] | 6.67 |  |
| COc1ccc([C@H]2CCN(Cc3nc4cnccc4n3C)C[C@H]2C)c(C(F)(F)F)c1 (relative stereo) [compound 174] | < 5.77 |  |
| C[C@@H]1CN(Cc2nc3ncccc3n2C)CC[C@@H]1c1ccc(OC(F)F)cc1 (relative stereo) [compound 177] | 6.37 |  |
| C[C@@H]1CN(Cc2nc3cnccc3n2C)CC[C@@H]1c1ccc(OC(F)F)cc1 (relative stereo) [compound 178] | < 5.87 |  |
| C[C@@H]1CN(Cc2nc3ncccc3n2C)CC[C@@H]1c1cc(F)c(F)cc1F (relative stereo) [compound 179] | 6.42 |  |
| C[C@@H]1CN(Cc2nc3cnccc3n2C)CC[C@@H]1c1cc(F)c(F)cc1F (relative stereo) [compound 180] | 6.12 |  |
| CC(C)Oc1ccc([C@H]2CCN(Cc3nc4cnccc4n3C)C[C@H]2C)cc1F (relative stereo) [compound 181] | 5.96 |  |
| CC(C)Oc1ccc([C@H]2CCN(Cc3nc4ncccc4n3C)C[C@H]2C)cc1F (relative stereo) [compound 182] | 6.24 |  |
| C[C@@H]1CN(Cc2nc3ncccc3n2C)CC[C@@H]1c1ccc(OC(F)(F)F)cc1Cl (relative stereo) [compound 187] | 7.20 |  |
